Results: publication PMC8597786 (Antimicrobial Agents and Chemotherapy, 2021)
pEC50, pIC50: −log10 of the molar value. Where “and” joins values, the source holds several entries; their conditions need not be identical. Equal entries are not always repeated. Where two headings read alike, the source gives them in different places.

Tests used:
[1] = molecular target: T1, SARS-CoV-2 spike RBD/ACE2 (Severe acute respiratory syndrome coronavirus 2, UniProt P0DTC2); test: biochemical; assay type: binding, SARS-CoV-2 (USA-WA1/2020)
T1 construct: a SARS-CoV-2 RBD protein derived from USA-WA1/2020 and containing a C-terminal His tag; a full-length ACE2 peptide with a C-terminal Fc tag; purchased Sino Biological

[2] = tested on: Vero-E6 cells; test: Resazurin cell viability assay in uninfected cells; assay type: cell-based
Procedure: (§1) A total of 20,000 Vero-E6 cells were plated in 96-well plates and incubated overnight before addition of compounds at defined concentrations; 0.1% DMSO vehicle control was added to wells in the absence of test compounds. All experimental conditions were performed in duplicate. Cells were then incubated at 37°C and 5% CO2 for 4 days before addition of resazurin (Sigma-Aldrich) to a final concentration of 20 μg/ml. Cells were incubated for an additional 4 h before fluorescence intensity was measured using a ClarioStar plate reader (BMG Labtech). Background fluorescence was subtracted from wells containing resazurin and D10+ medium but no cells.

[3] = tested on: VSVΔG-S-GFP pseudovirus containing SARS-CoV-2 spike from B.1.1.7; assay type: cell-based, SARS-CoV-2 B.1.1.7; conditions: for % GFP+ nuclei, Average: 50 μM; for Infected cells at 50 μM (%), VSVΔG-S-GFP pseudovirus B.1.1.7: 24 h
[4] = tested on: VSVΔG-S-GFP pseudovirus containing SARS-CoV-2 spike (USA-WA1/2020)
[5] = Resazurin cell viability assay in uninfected cells; assay type: cell-based; conditions: African green monkey, uninfected Vero-E6 cells, resazurin, 4 days
Procedure: as §1

[6] = 200 mg/kg; cited from earlier work
[7] = molecular target: T2, SARS-CoV-2 M^pro (Severe acute respiratory syndrome coronavirus 2, UniProt P0DTD1); test: M^pro enzymatic assay (FRET fluorogenic peptide substrate); assay type: biochemical
T2 construct: QHD43415.1; amino acids [aa]; 3264 to 3567; HIS-SUMO (N, cleaved yes); made in house; host or cells: E. coli BL21(DE3)

[8] = 100 mg/kg; cited from earlier work
[9] = 200 mg/kg; cited from earlier work; remark: listed apart in the source
[10] = tested on: VSVΔG-S-GFP pseudovirus containing SARS-CoV-2 spike from B.1.351; assay type: cell-based, SARS-CoV-2 B.1.351; conditions: for % GFP+ nuclei, Average: 50 μM; for Infected cells at 50 μM (%), VSVΔG-S-GFP pseudovirus B.1.351: 24 h
[11] = molecular target: T3, PD-1/PD-L1 (Homo sapiens, UniProt Q9NZQ7); test: PD-1/PD-L1 AlphaScreen interaction assay; assay type: binding
T3 construct: purchased Sino Biological
T3 sequence (Q9NZQ7 19-239 limits assumed): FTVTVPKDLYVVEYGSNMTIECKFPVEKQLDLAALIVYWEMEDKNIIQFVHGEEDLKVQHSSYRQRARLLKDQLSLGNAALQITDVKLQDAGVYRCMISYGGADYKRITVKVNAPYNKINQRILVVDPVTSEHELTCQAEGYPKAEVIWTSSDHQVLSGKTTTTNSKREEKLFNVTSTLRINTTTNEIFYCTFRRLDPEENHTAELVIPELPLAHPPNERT
Procedure: PD-1 binding to PD-L1 was also determined using AlphaScreen technology. […] Next, 5 μl of PD-L1-Fc/protein A acceptor beads was added first to the plate, followed by 100 nl of test compound prepared as described above, followed by 5 μl of PD-1-His/nickel chelate donor beads. For each experiment, all conditions were performed in duplicate. Following 2 h of incubation at room temperature, data were collected as described above and normalized to percentage inhibition, where 100% equaled the AlphaScreen signal in the absence of PD-1-His, and 0% equaled the AlphaScreen signal in the presence of both proteins and 0.1% DMSO alone.

[12] = tested on: SARS-CoV-2 (BetaCov isolate); conditions: supernatant viral RNA by quantitative PCR after 48 h, read-out: EC50 in SARS-CoV-2-infected Vero-E6 cells; cited from earlier work
[13] = tested on: RBD with ACE2; conditions: read-out: IC50, inhibition of binding of RBD with ACE2; cited from earlier work
[14] = tested on: SARS-CoV-2; conditions: read-out: EC50, SARS-CoV-2 replication; cited from earlier work
[15] = read-out: IC50 for Spike/ACE2 AlphaScreen

Cc1c(COc2cc(OCc3cccc(C#N)c3)c(CN3C[C@H](O)C[C@@H]3C(=O)O)cc2Cl)cccc1-c1ccc2c(c1)OCCO2 [BMS-1166, reference compound]
pIC50 [1, 15]: < 4.00

CC(C)C[C@H](NC(=O)OCc1ccccc1)C(=O)N[C@@H](CC1CCNC1=O)C(O)S(=O)(=O)O (stereo partly shown) [GC-376, reference compound]
CC50 ([2]; resazurin, 4 days): > 10 µM

Oc1ccc([C@@H]2c3c(O)cc(O)cc3[C@@H]3c4c(cc(O)cc4[C@H]2[C@@H]2c4cc(O)cc5c4[C@@H](c4cc(O)cc(O)c4[C@H]2c2ccc(O)cc2)[C@H](c2ccc(O)cc2)O5)O[C@H]3c2ccc(O)cc2)cc1 [Hopeaphenol, (–)-hopeaphenol]
% GFP+ nuclei, Average [3]: 1.83% | Infected cells at 50 μM (%), VSVΔG-S-GFP pseudovirus B.1.1.7 [3]: 34.1 ± 13.6% and 34.1% | % GFP+ nuclei, Average ([4]; 50 μM): 0.69% | Infected cells at 50 μM (%), VSVΔG-S-GFP pseudovirus WA1/2020 ([4]; 24 h): 28.2 ± 1.2% and 28.2% | CC50 at 4 days [5]: > 100 µM | pIC50 [1]: 6.96 | Selectivity index [1]: 257.3 | Plasma glucose in sucrose-loaded mice [6]: reduce plasma glucose | pIC50 [7]: 4.37 | Effect against LPS-induced liver injury in mice [8]: hepatoprotective effects | Plasma triglyceride elevation in olive oil-treated mice [9]: inhibit plasma triglyceride elevation | % GFP+ nuclei, Average [10]: 0.93% | Infected cells at 50 μM (%), VSVΔG-S-GFP pseudovirus B.1.351 [10]: 20.4 ± 2.4% and 20.4% | pIC50 [11]: 4.55

CCC(CC)COC(=O)[C@H](C)N[P@](=O)(OC[C@H]1O[C@@](C#N)(c2ccc3c(N)ncnn23)[C@H](O)[C@@H]1O)Oc1ccccc1 [Remdesivir, remdesivir, reference compound]
CC50 at 4 days [5]: > 10 µM

Oc1ccc(/C=C/c2cc(O)cc(O)c2)cc1 [Resveratrol, resveratrol, reference compound]
% GFP+ nuclei, Average ([4]; 50 μM): 2.36% | Total cell nuclei, % of nuclei observed in untreated, infected cells ([4]; 50 μM, 24 h): 60.3 ± 7.0% | Infected cells at 50 μM (%), VSVΔG-S-GFP pseudovirus WA1/2020 ([4]; 24 h): 96.3 ± 14.7% and 96.3% | CC50 at 4 days [5]: ~100 µM | pIC50 [1]: < 4.00 | pEC50 [12]: 4.97

OC[C@H]1O[C@@H](Oc2cc3c4c(c2)[C@@H]([C@@H]2c5cc(O)cc6c5[C@@H](c5cc(O)cc(O)c5[C@H]2c2ccc(O)cc2)[C@H](c2ccc(O)cc2)O6)[C@H](c2ccc(O)cc2)c2c(O)cc(O)cc2[C@H]4[C@H](c2ccc(O)cc2)O3)[C@H](O)[C@@H](O)[C@@H]1O [Vatalbinoside A, vatalbinoside A]
% GFP+ nuclei, Average [3]: 2.35% | Infected cells at 50 μM (%), VSVΔG-S-GFP pseudovirus B.1.1.7 [3]: 43.8 ± 3.4% and 43.8% | % GFP+ nuclei, Average ([4]; 50 μM): 0.99% | Infected cells at 50 μM (%), VSVΔG-S-GFP pseudovirus WA1/2020 ([4]; 24 h): 40.4 ± 16.7% and 40.4% | CC50 at 4 days [5]: > 100 µM | pIC50 [1]: 6.62 | Selectivity index [1]: 92.9 | pIC50 [7]: 4.16 | % GFP+ nuclei, Average [10]: 1.87% | Infected cells at 50 μM (%), VSVΔG-S-GFP pseudovirus B.1.351 [10]: 41.1 ± 2.6% and 41.1% | pIC50 [11]: 4.65

Oc1ccc([C@@H]2c3c(O)cc(O)cc3[C@@H]3c4c(cc(O)c5c4[C@@H]2[C@H](c2ccc(O)cc2)[C@H]5c2cc(O)cc4c2[C@@H](c2cc(O)cc(O)c2)[C@H](c2ccc(O)cc2)O4)O[C@H]3c2ccc(O)cc2)cc1 [Vaticanol B, vaticanol B]
% GFP+ nuclei, Average [3]: 2.02% | Infected cells at 50 μM (%), VSVΔG-S-GFP pseudovirus B.1.1.7 [3]: 37.7 ± 4.1% and 37.7% | % GFP+ nuclei, Average ([4]; 50 μM): 2.05% | Infected cells at 50 μM (%), VSVΔG-S-GFP pseudovirus WA1/2020 ([4]; 24 h): 83.7 ± 4.9% and 83.7% | CC50 at 4 days [5]: > 100 µM | pIC50 [1]: 7.17 | Selectivity index [1]: 247.8 | pIC50 [7]: 4.32 | % GFP+ nuclei, Average [10]: 3.29% | Infected cells at 50 μM (%), VSVΔG-S-GFP pseudovirus B.1.351 [10]: 72.3 ± 7.3% and 72.3% | pIC50 [11]: 4.78

Oc1ccc([C@H]2Oc3cc(O)cc([C@@H]4[C@H](c5cc(O)cc(O)c5)[C@@H](c5ccc(O)cc5)O[C@H]4c4ccc(O)cc4)c3[C@@H]2c2cc(O)c3c(c2)[C@@H](c2cc(O)cc(O)c2)[C@H](c2ccc(O)cc2)O3)cc1 [kobophenol A]
pIC50 [13]: 5.74 | pEC50 [14]: 4.15

REGN10933
Cytotoxicity by resazurin staining ([2]; 4 days of treatment): no evidence of cytotoxicity | pIC50 [1, 15]: 9.74
